Measured values taken from patent US5420335A, “Parenteral nutrients based on watersoluble glycerol bisacetoacetates” (priority 1993, dated 1995).
Where “and” joins values, the source holds several entries; their conditions need not be identical. Equal entries are not always repeated. Entries after “also recorded” stand apart in the source; their conditions may differ.

Columns and labels:
[1] = Plasma free fatty acids, glucose and ketone bodies after 7 days of infusion; format: in vivo, rat (male Sprague-Dawley); settings: end of day 7; for ACAC / BOHB / FFa / Glucose / Ratio: A/B / T.KB: Table 5, Example 2; for T.KB: total ketone bodies
Description: (§1) Infusate volume, oral food intake, body weight and urinary volume and total nitrogen were monitored daily for each rat. Infusate volume and food intake were determined by weighing the appropriate container at the start and end of each 24 hr. period. Measurements were recorded between 9 and 10 AM each day. At the end of the 7th day, rats were sacrificed, and blood and liver were harvested. Plasma was separated for measurement of free fatty acids, glucose, and ketone bodies. Liver was weighed and a sample was fixed in buffered formalin for gross histology.
(§2) The data were analyzed for significance by the one-way analysis of variance with repeated measures and comparing the effect of dietary treatment on each day. […] The null hypothesis was concluded invalid if p≤0.05. The analysis of variance was computed on a SAS statistical package.

[2] = Mortality and gross toxicity on intravenous infusion; settings: Example 2; 12.5 g/100 mL in 0.9% saline, 50 mL/day i.v.
Description: (§3) Water was available ad libitum at all times.
(§4) The vein was then ligated dorsally to the catheter. […] Body weights were measured daily.

[3] = Oral dietary nitrogen (food) intake of intravenously infused rats; format: in vivo, rat (male Sprague-Dawley); settings: Table 1, Example 2, average of 7 rats
[4] = Daily urinary nitrogen losses of intravenously infused rats; format: in vivo, rat (male Sprague-Dawley); settings: Table 2, Example 2
Description: as §3, §4, §1
(§5) The data were analyzed for significance by the one-way analysis of variance with repeated measures and comparing the effect of dietary treatment on each day. […] The null hypothesis was concluded invalid if p≤0.05. The analysis of variance was computed on a SAS statistical package. […]

[5] = Nitrogen balance (difference between intake and urinary output); format: in vivo, rat (male Sprague-Dawley); settings: for nitrogen balance: 7 days; for Nitrogen Balance, Difference Between Intake and Output: Table 3, Example 2
Description: as §3, §4, §1, §2
FIG. 3 illustrates the difference between oral intake and urinary nitrogen output which is termed nitrogen balance. It is representative of nitrogen balance because urinary nitrogen is the major route for body loss of nitrogen.
The experimental compound contains 8% nitrogen. With an infusion of 5.6 grams/day, infused nitrogen would provide approximately 450 mg more than that listed in the data tables. The final balance figures includes this number which is calculated based on the actual daily infusion rate for each rat.

[6] = Oral dietary nitrogen (food) intake of intravenously infused rats; format: in vivo, rat (male Sprague-Dawley); settings: for Dietary Nitrogen Intake: Table 1, Example 2
Description: as §3, §4, §1, §2
(§6) This compound has an estimated energy density of 4.86 kcal/gram based on thermodynamic data from similar compounds.

[7] = Overall evaluation as a parenteral nutrient; format: in vivo, rat (male Sprague-Dawley); settings: in words
Description: as §3, §4, §1, §2

[8] = Daily body weight of intravenously infused rats; format: in vivo, rat (male Sprague-Dawley); settings: for Daily Body Weight: Table 4, Example 2
Description: as §3, §4, §1, §2, §6

[9] = Liver weight after 7 days of infusion; format: in vivo, rat (male Sprague-Dawley); settings: for Liver/100 GM / Liver Wt.: Table 5, Example 2; for Liver/100 GM: as percentage of body weight
Description: as §1, §5

[10] = day 1, individual rat, listed as BISACETOACETYLGLYCEROL
[11] = day 2, individual rat, listed as BISACETOACETYLGLYCEROL
[12] = day 3, individual rat, listed as BISACETOACETYLGLYCEROL
[13] = day 4, individual rat, listed as BISACETOACETYLGLYCEROL
[14] = day 5, individual rat, listed as BISACETOACETYLGLYCEROL
[15] = day 6, individual rat, listed as BISACETOACETYLGLYCEROL
[16] = day 7, individual rat, listed as BISACETOACETYLGLYCEROL

## Glycerol bis-acetoacetate [Compound 1]
[1]; plasma, average of 7 rats
  ACAC: 0.716 mmol/L
  BOHB: 0.776 mmol/L
  FFa: 0.563 mmol/L
  Glucose: 117.789 mg/dL
  Ratio: A/B: 1.171
  T.KB: 1.492 mmol/L
[1]; plasma, individual rat
  ACAC: 0.982 mmol/L and 0.851 mmol/L and 0.939 mmol/L and 0.447 mmol/L and 0.869 mmol/L and 0.550 mmol/L and 0.377 mmol/L
  BOHB: 0.797 mmol/L and 0.770 mmol/L and 1.059 mmol/L and 0.529 mmol/L and 1.021 mmol/L and 0.404 mmol/L and 0.849 mmol/L
  FFa: 0.540 mmol/L and 0.574 mmol/L and 0.745 mmol/L and 0.466 mmol/L and 0.483 mmol/L and 0.615 mmol/L and 0.519 mmol/L
  Glucose: 94.920 mg/dL and 149.000 mg/dL and 114.200 mg/dL and 163.500 mg/dL and 89.000 mg/dL and 122.100 mg/dL and 91.800 mg/dL
  Ratio: A/B: 0.812 and 0.905 and 1.128 and 1.185 and 1.175 and 0.735 and 2.254
  T.KB: 1.779 mmol/L and 1.621 mmol/L and 1.998 mmol/L and 0.976 mmol/L and 1.890 mmol/L and 0.954 mmol/L and 1.226 mmol/L
[1]; in words
  blood / plasma glucose: normal blood glucose; also recorded: did not have the hyperglycemia associated with glucose infusion
[1]; in words, plasma
  free fatty acid concentration: not different for the three groups
  ketone bodies: elevated; also recorded: approximately the maximum associated with total fasting in the rat
[2]
  rats died from causes unknown: Five
[3]; day 1
  Dietary Nitrogen Intake: 216 MG N
[3]; day 2
  Dietary Nitrogen Intake: 333 MG N
[3]; day 3
  Dietary Nitrogen Intake: 408 MG N
[3]; day 4
  Dietary Nitrogen Intake: 454 MG N
[3]; day 5
  Dietary Nitrogen Intake: 419 MG N
[3]; day 7
  Dietary Nitrogen Intake: 389 MG N
[4]; day 1, average of 7 rats
  Urinary Nitrogen: 166 mg
[4]; [10]
  Urinary Nitrogen: 116.21 mg and 250.2 mg and 187.3 mg and 123.37 mg and 182.18 mg and 159.89 mg and 145.06 mg
[4]; day 2, average of 7 rats
  Urinary Nitrogen: 192 mg
[4]; [11]
  Urinary Nitrogen: 315.78 mg and 264.22 mg and 139.27 mg and 174.34 mg and 187.22 mg and 165.19 mg and 94.71 mg
[4]; day 3, average of 7 rats
  Urinary Nitrogen: 137 mg
[4]; [12]
  Urinary Nitrogen: 181.94 mg and 142.42 mg and 62.97 mg and 164.52 mg and 162.29 mg and 140.13 mg and 104.72 mg
[4]; day 4, average of 7 rats
  Urinary Nitrogen: 173 mg
[4]; [13]
  Urinary Nitrogen: 294.68 mg and 253.62 mg and 47.06 mg and 193.72 mg and 139.67 mg and 115.59 mg and 168.33 mg
[4]; day 5, average of 7 rats
  Urinary Nitrogen: 215 mg
[4]; [14]
  Urinary Nitrogen: 289.81 mg and 303.16 mg and 254.66 mg and 144.16 mg and 274.72 mg and 97.81 mg and 142.32 mg
[4]; day 6, average of 7 rats
  Urinary Nitrogen: 195 mg
[4]; [15]
  Urinary Nitrogen: 283.02 mg and 191.83 mg and 11.17 mg and 134.85 mg and 378.79 mg and 184.37 mg and 179.01 mg
[4]; day 7, average of 7 rats
  Urinary Nitrogen: 219 mg
[4]; [16]
  Urinary Nitrogen: 381.14 mg and 194.98 mg and 152.92 mg and 192.67 mg and 269.64 mg and 203.37 mg and 138.8 mg
[5]; Example 2
  nitrogen balance: around +200 mg/day
[5]; day 1, average of 7 rats
  Nitrogen Balance, Difference Between Intake and Output: 50 MG N
[5]; [10]
  Nitrogen Balance, Difference Between Intake and Output: 2.23 MG N and -125.18 MG N and -49.12 MG N and 488.57 MG N and 67.86 MG N and -8.55 MG N and -26.62 MG N
[5]; day 2, average of 7 rats
  Nitrogen Balance, Difference Between Intake and Output: 141 MG N
[5]; [11]
  Nitrogen Balance, Difference Between Intake and Output: 26.38 MG N and 170.06 MG N and 345.48 MG N and 260.22 MG N and 157.23 MG N and 36.89 MG N
[5]; day 3, average of 7 rats
  Nitrogen Balance, Difference Between Intake and Output: 271 MG N
[5]; [12]
  Nitrogen Balance, Difference Between Intake and Output: 120.74 MG N and 489.26 MG N and 42.31 MG N and 282.92 MG N and 469.39 MG N and 333.63 MG N and 158.48 MG N
[5]; day 4, average of 7 rats
  Nitrogen Balance, Difference Between Intake and Output: 281 MG N
[5]; [13]
  Nitrogen Balance, Difference Between Intake and Output: 376.48 MG N and 384.64 MG N and 31.9 MG N and 385.32 MG N and 274.87 MG N and 292.37 MG N and 219.89 MG N
[5]; day 5, average of 7 rats
  Nitrogen Balance, Difference Between Intake and Output: 204 MG N
[5]; [14]
  Nitrogen Balance, Difference Between Intake and Output: 269.49 MG N and 269.3 MG N and -24.36 MG N and 244.06 MG N and 343.8 MG N and 171.97 MG N and 153.78 MG N
[5]; day 6, average of 7 rats
  Nitrogen Balance, Difference Between Intake and Output: 166 MG N
[5]; [15]
  Nitrogen Balance, Difference Between Intake and Output: 256.54 MG N and 38.47 MG N and 48.05 MG N and 240.21 MG N and 246.31 MG N and 230.17 MG N and 103.93 MG N
[5]; day 7, average of 7 rats
  Nitrogen Balance, Difference Between Intake and Output: 170 MG N
[5]; [16]
  Nitrogen Balance, Difference Between Intake and Output: 184.74 MG N and 68.22 MG N and -1.58 MG N and 228.45 MG N and 375.2 MG N and 270.39 MG N and 65.18 MG N
[5]; in words
  nitrogen balance: positive nitrogen balances; also recorded: better growth and nitrogen retention
[6]; [10]
  Dietary Nitrogen Intake: 118.44 MG N and 125.02 MG N and 138.18 MG N and 611.94 MG N and 250.04 MG N and 151.34 MG N
[6]; [11]
  Dietary Nitrogen Intake: 342.16 MG N and 434.28 MG N and 131.6 MG N and 519.82 MG N and 447.44 MG N and 322.42 MG N
[6]; [12]
  Dietary Nitrogen Intake: 302.68 MG N and 631.68 MG N and 105.28 MG N and 447.44 MG N and 473.76 MG N and 263.2 MG N
[6]; [13]
  Dietary Nitrogen Intake: 671.16 MG N and 638.26 MG N and 78.96 MG N and 579.04 MG N and 414.54 MG N and 407.96 MG N and 388.22 MG N
[6]; [14]
  Dietary Nitrogen Intake: 559.3 MG N and 572.46 MG N and 230.3 MG N and 388.22 MG N and 618.52 MG N and 269.78 MG N and 296.1 MG N
[6]; day 6, average of 7 rats
  Dietary Nitrogen Intake: 361 MG N
[6]; [15]
  Dietary Nitrogen Intake: 539.56 MG N and 230.3 MG N and 59.22 MG N and 375.06 MG N and 625.1 MG N and 414.54 MG N and 282.94 MG N
[6]; [16]
  Dietary Nitrogen Intake: 565.88 MG N and 263.2 MG N and 151.34 MG N and 421.12 MG N and 644.84 MG N and 473.76 MG N and 203.98 MG N
[6]; in words, vs saline and other groups, 7 days
  differences in dietary nitrogen intake among the three groups: no differences in dietary nitrogen intake among the three groups
[7]
  efficacy as parenteral nutrient / energy source: providing significant energy beyond that which was available from oral dietary intake
[7]; listed as 1,2- and 1,3-bisacetoacetyl glycerol
  efficacy as parenteral nutrient / energy source: unexpectedly high nutrient activity
[8]; day 0, average of 7 rats
  Daily Body Weight: 262 Grams
[8]; day 0, individual rat, listed as BISACETOACETYLGLYCEROL
  Daily Body Weight: 282 Grams and 278 Grams and 233 Grams and 283 Grams and 268 Grams and 244 Grams
[8]; day 1, average of 7 rats
  Daily Body Weight: 268 Grams
[8]; [10]
  Daily Body Weight: 311 Grams and 290 Grams and 230 Grams and 284 Grams and 268 Grams and 249 Grams and 241 Grams
[8]; day 2, average of 7 rats
  Daily Body Weight: 268 Grams
[8]; [11]
  Daily Body Weight: 273 Grams and 289 Grams and 232 Grams and 297 Grams and 279 Grams and 249 Grams and 256 Grams
[8]; day 3, average of 7 rats
  Daily Body Weight: 273 Grams
[8]; [12]
  Daily Body Weight: 278 Grams and 286 Grams and 258 Grams and 292 Grams and 256 Grams and 263 Grams
[8]; day 4, average of 7 rats
  Daily Body Weight: 271 Grams
[8]; [13]
  Daily Body Weight: 265 Grams and 284 Grams and 226 Grams and 302 Grams and 280 Grams and 262 Grams and 276 Grams
[8]; day 5, average of 7 rats
  Daily Body Weight: 276 Grams
[8]; [14]
  Daily Body Weight: 261 Grams and 276 Grams and 234 Grams and 306 Grams and 285 Grams and 293 Grams and 277 Grams
[8]; day 6, average of 7 rats
  Daily Body Weight: 269 Grams
[8]; [15]
  Daily Body Weight: 253 Grams and 261 Grams and 252 Grams and 310 Grams and 281 Grams and 269 Grams and 260 Grams
[8]; day 7, average of 7 rats
  Daily Body Weight: 266 Grams
[8]; [16]
  Daily Body Weight: 249 Grams and 261 Grams and 253 Grams and 307 Grams and 276 Grams and 273 Grams and 245 Grams
[8]; in words, 7 days
  change in body weight: gained weight; also recorded: body weight changes which were consistent with nitrogen balance data; also recorded: better growth
[9]; average of 7 rats
  Liver/100 GM: 3.223
[9]; individual rat
  Liver/100 GM: 2.859 and 3.494 and 3.130 and 3.795 and 2.482 and 3.183 and 3.620
[9]; end of day 7, average of 7 rats
  Liver Wt.: 8.603 Grams
[9]; end of day 7, individual rat
  Liver Wt.: 7.12 Grams and 9.12 Grams and 7.92 Grams and 11.65 Grams and 6.85 Grams and 8.69 Grams and 8.87 Grams
[9]; in words, end of day 7
  liver weight and percentage liver weight: similarity between glucose infused and experimental compound infused rats liver
